The values below come from patent publication US9988343B2, “Inhibitors of histone deacetylase” (Dana-Farber Cancer Institute, Inc., priority 2013, dated 2018).

For data set [1], the system named is JMJ family demethylases, including several variants of JMJD2 and JMJD1. Conditions: Kruidenier et al. 2012; cited from earlier work.
A further data set has as its target PHF8 (Homo sapiens, UniProt Q9UPP1). Conditions: King et al. 2010; cited from earlier work.
For the next data set, the system named is JMJD2A in HeLa cells. Conditions: read-out: IC50 H3K9me3 demethylation by JMJD2A, King et al. 2010; cited from earlier work.
The next data set relates to HDAC3 knockdown cells. Nature of the data set: MTT cell growth in HDAC3 knockdown cells. Type of data set: cell-based, human. How it is done:
HDAC1, HDAC2 and HDAC3 pLKO.1 shRNA vectors were obtained from the RNA Interference Screening Facility at the Dana-Farber Cancer institute. Recombinant lentivirus was produced and infection of MM cells was performed using standard methods in the art.
In addition, the effect of bortezomib on HDAC3 knockdown cells was examined. RPMI8226 (FIG. 7B, left panel) and MM.1S (FIG. 7B, right panel) cells were infected with Luc or HDAC3 (#1 and #2) shRNAs. Cells were then cultured with or without bortezomib (3 nM) for 48 hours and cell growth was assessed by MTT assay. Data represent mean±SD from triplicate cultures.
Also, experiments were conducted to determine whether dual inhibition of both HDAC3 and HDAC6 was more cytotoxic than either HDAC3 or HDAC6 when combined with bortezomib. Cell growth was assayed by MTT assay in the presence of Luc (control), sh1 or sh2 shRNAs against HDAC3 alone, or in combination with a selective HDAC6 inhibitor—tubastatin-A, or in combination with both tubastatin-A and bortezomib.

For data set [2], the system named is RPMI8226 cells. Description: Combination with bortezomib, MTT cytotoxicity, combination index. In kind it is cell-based, human. Conditions: for CI (combination index): RPMI8226, MTT, 24 h.
Experimental: The combined effect of drugs was analyzed by isobologram analysis using the Compusyn software program (ComboSyn, Inc.); a combination index (CI)<1 is indicative of a synergistic effect.
All experiments were performed 3 times in quadruplicate. Data represent mean±SD (FIG. 7D).
The test system of a further data set is MM cell lines. Nature of the data set: Cell growth inhibition assay (MTT) in MM cell lines. Conditions: MM cell lines, 48 hours, MTT (FIG. 1A). In kind it is cell-based, human. How it is done:
To measure proliferation of MM cells, the rate of DNA synthesis was measured by ^3[H]-thymidine (Perkin-Elmer) uptake.
The growth inhibitory effect of Merck60 (HDACL, 2 inhibitor previously reported as compound #60 by Method et al. Bioorg. Med. Chem. Lett. 2008. 18(3):973-8) versus MS275 (HDAC1, 2, 3 inhibitor) was examined in MM cell lines using MTT assay. MM cells were cultured with Merck60 (left panel) or MS275 (right panel) for 48 hours. Cell growth was assessed by MTT assay. All experiments were performed 3 times in quadruplicate. Data represent mean±SD.
Cell growth was assessed by MTT assay. All experiments were performed 3 times in quadruplicate. Data represent mean±SD.

For data set [3], the system named is RPMI8226 cells. Description: Immunoblot of histone acetylation in RPMI8226 cells. Conditions: RPMI8226, 12 h, compared with Merck60 (FIG. 1C). Type of data set: cell-based, human.
The next data set relates to pSTAT3 (Tyr705). Nature of the data set: Immunoblot of STAT3 phosphorylation in MM cells. In kind it is cell-based, human. Conditions: RPMI8226 infected with shRNAs, bortezomib 5 nM, 6 hours (FIG. 7C). How it is done:
MM cells were harvested and lysed using sodium dodecyl sulfate-polyacrylamide gel electrophoresis (SDS-PAGE) sample buffer containing 60 mM Tris-HCl, pH 6.8, 2% SDS, 10% glycerol, 0.005% bromophenol blue, 5 mM ethylenediaminetetraacetic acid, 5 mM NaF, 2 mM […], 1 mM phenylmethylsulfonyl fluoride (PMSF), 5 μg/mL leupeptin, and 5 μg/mL aprotinin; and then heated at 100° C. for 5 min. After the determination of protein concentration using DC protein assay (Bio-Rad, Hercules, Calif.), β-mercaptoethanol (β-ME) was added to the whole-cell lysates to a 2% final β-ME concentration. The whole-cell lysates were subjected to SDS-PAGE, transferred to nitrocellulose membranes (Bio-Rad, Hercules, Calif.) or polyvinylidene fluoride membranes (Millipore, Billerica, Mass.), and immunoblotted with anti-histone H3, -HDAC1, -HDAC2, -HDAC3, -Acetyl-histone H2A (Lysine 5) (Ac-H2AK5), -Acetyl-histone H2B (lysine 5) (Ac-H2 BK5), -Acetyl-histone H3 (lysine 9) (Ac-H3K9), -Acetyl-histone H4 (lysine 8) (Ac-H4K8), -glyceraldehyde-3-phosphate dehydrogenase (GAPDH), -poly (ADP-ribose) polymerase (PARP), -caspase-3, -caspase-8, -caspase-9, -Signal transducers and activators of transcription 3 (STAT3), -phospho-STAT3 (pSTAT3) (tyrosine 705), -pSTAT3 (serine 727), -p21, -Janus kinase 2 (JAK2), -acetylated-Lysine (Ac-K), and anti-phosphorylated-tyrosine antibodies (Abs; Cell Signaling Technology, Beverly, Mass.).
MM.1S, U266, and INA6 cells were cultured with DMSO control or LBH589 (50 and 100 nM) for 8 h.
MM.1S cells pretreated with or without 50 nM LBH589 for 8 hours were then treated with IL-6 (10 ng/mL) or BMSC culture supernatants (#1 and #2) for 15 minutes. Whole cell lysates were subjected to immunoblotting with anti-pSTAT3 (Tyr705) and STAT3 Abs.
In addition, INA-6 cells were cultured with DMSO control, LBH589 (50 nM), TSA (1 μM) or SAHA (2 μM) for 8 hours. Whole cell lysates were subjected to immunoblotting with anti-pSTAT3 (Tyr705), STAT3, and GAPDH Abs.
Whole cell lysates were subjected to immunoblotting with anti-pSTAT3 (Tyr705), -STAT3, -pERK1/2 (Thr202/204), and -ERK1/2 Abs (FIG. 6G).
See, e.g., Hideshima et al. Blood. 2006, 107:4053-4062. Since bortezomib upregulates activated STAT3 in head and neck squamous cell carcinoma (see, e.g., Li et al. Mol Cancer Ther 2009. 8:2211-2220), experiments were conducted to test whether bortezomib enhances p-STAT3 in MM cells. RPMI8226 cells were infected with Luc, HDAC1 (sh1), HDAC2 (sh1) or HDAC3 (sh1) shRNAs and then treated with or without bortezomib (5 nM) for 6 hours. Whole cell lysates were subjected to immunoblotting with anti-STAT3, -pSTAT3 (Tyr705), -pERK1/2 (Thr202/204) and -ERK1/2 Abs.
(In general: Immunoblotting shows a protein as a band on a membrane.)

The mark [4] stands for this setting: HDAC inhibitor 1 μM + bortezomib 4 nM.
[5] abbreviates: HDAC inhibitor 2 μM + bortezomib 2 nM.
The mark [6] stands for this setting: HDAC inhibitor 2 μM + bortezomib 3 nM.
The mark [7] stands for this setting: HDAC inhibitor 2 μM + bortezomib 4 nM.
The mark [8] stands for this setting: HDAC inhibitor 3 μM + bortezomib 2 nM.
[9] abbreviates: HDAC inhibitor 3 μM + bortezomib 3 nM.
[10] abbreviates: HDAC inhibitor 3 μM + bortezomib 4 nM.

PHF8, sequence (Q9UPP1 whole entry, species assumed): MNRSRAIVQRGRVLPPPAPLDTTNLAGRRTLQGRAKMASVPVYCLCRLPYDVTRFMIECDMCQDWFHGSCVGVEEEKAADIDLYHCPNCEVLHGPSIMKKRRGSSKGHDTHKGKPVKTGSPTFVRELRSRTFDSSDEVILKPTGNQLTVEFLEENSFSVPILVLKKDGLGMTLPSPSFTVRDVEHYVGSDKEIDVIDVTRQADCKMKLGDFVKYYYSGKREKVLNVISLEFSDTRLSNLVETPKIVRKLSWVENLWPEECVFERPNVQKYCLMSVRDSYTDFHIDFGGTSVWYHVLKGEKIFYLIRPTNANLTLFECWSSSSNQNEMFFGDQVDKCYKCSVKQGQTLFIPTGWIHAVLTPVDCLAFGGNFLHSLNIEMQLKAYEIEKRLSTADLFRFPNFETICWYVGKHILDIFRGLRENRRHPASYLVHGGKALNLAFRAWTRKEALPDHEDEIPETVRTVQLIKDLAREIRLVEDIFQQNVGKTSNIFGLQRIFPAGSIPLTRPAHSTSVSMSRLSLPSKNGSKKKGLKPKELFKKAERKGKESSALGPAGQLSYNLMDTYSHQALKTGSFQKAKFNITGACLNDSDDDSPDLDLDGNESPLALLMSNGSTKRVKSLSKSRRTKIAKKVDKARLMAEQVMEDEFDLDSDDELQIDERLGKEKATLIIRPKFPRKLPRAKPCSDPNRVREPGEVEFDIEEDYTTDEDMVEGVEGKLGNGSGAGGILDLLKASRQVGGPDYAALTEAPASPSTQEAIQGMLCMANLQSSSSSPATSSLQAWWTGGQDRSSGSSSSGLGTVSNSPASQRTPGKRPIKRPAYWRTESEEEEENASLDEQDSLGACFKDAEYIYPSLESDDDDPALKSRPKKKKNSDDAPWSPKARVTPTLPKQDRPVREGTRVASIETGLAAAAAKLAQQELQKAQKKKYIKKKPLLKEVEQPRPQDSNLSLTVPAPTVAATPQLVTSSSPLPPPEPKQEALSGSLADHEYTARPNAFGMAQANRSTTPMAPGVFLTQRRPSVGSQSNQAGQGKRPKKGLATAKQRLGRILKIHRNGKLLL

Turning to `O=C([O-])CCNc1cc(N2CCc3ccccc3CC2)nc(-c2ccccn2)n1.[Na+]` [GSK J1, 3-((6-(4,5-dihydro-1H-benzo[d]azepin-3(2H)-yl)-2-(pyridin-2-yl)pyrimidin-4-yl)amino)propanoate, monosodium salt], in data set [1], the “activity against a panel of additional JMJ family demethylases” value is “inactive”.
What is called IC50 is the concentration that gives 50% inhibition. In the case of `O=C(O)c1ccc(O)c2ncccc12` [IOX1, 8-hydroxy-5-quinolinecarboxylic acid], the IC50 is 13.3 µM at PHF8 and 87 µM with JMJD2A in HeLa cells.
For the compound `CN1CCc2c(c3ccccc3n2Cc2ccc(C(=O)NO)cc2)C1` [tubastatin-A], the “cytotoxicity of combined HDAC3 knockdown with bortezomib” value in the data set with HDAC3 knockdown cells (MTT, tubastatin-A added (FIG. 8B)) is “further enhanced cytotoxicity”.
Consider `Nc1ccccc1NC(=O)c1ccc(CNC(=O)OCc2cccnc2)cc1` [MS275], for which the “CI (combination index)” value in the data set with RPMI8226 cells [2] (setting [4]) is 0.81; in the data set with RPMI8226 cells [2] (setting [5]) it was 0.56; with RPMI8226 cells [2] (setting [6]) it was 0.63; in the data set with RPMI8226 cells [2] (setting [7]), 0.76; with RPMI8226 cells [2] (setting [8]), 0.53; in the data set on RPMI8226 cells [2] (setting [9]), 0.62. Further, in the data set with RPMI8226 cells [2] (setting [10]), the “CI (combination index)” value came to 0.77. The “cytotoxicity in combination with bortezomib” value in the data set with RPMI8226 cells [2] (RPMI8226, bortezomib 0-4 nM + 1-3 μM, 24 hours (FIG. 7A)) is recorded as “synergistic cytotoxicity”. Moreover, in the data set on MM cell lines, the “MM cell growth inhibition” value is recorded as “significant MM cell growth inhibition”. For the same compound, the “acetylation of histones (H2A, H2B, H3 and H4)” value with RPMI8226 cells [3] was “more potently induced acetylation of histones”.
Consider `CC(C)CC(NC(=O)[C@H](Cc1ccccc1)NC(=O)c1cnccn1)B(O)O` (stereo in doubt) [bortezomib, [(1R)-3-methyl-1-[[(2S)-1-oxo-3-phenyl-2-[(pyrazinylcarbonyl)amino]propyl]amino]butyl]boronic acid], for which the “cytotoxicity in HDAC3 knockdown cells” value with HDAC3 knockdown cells (RPMI8226 and MM.1S with HDAC3 shRNAs, bortezomib 3 nM, 48 hours, MTT (FIG. 7B)) is on record as “significantly enhances cytotoxicity”. In addition, the p-STAT3 entry in the data set on pSTAT3 (Tyr705) is “upregulated p-STAT3”.
For `CC(=O)Nc1ccc(C(=O)Nc2cc(-c3cccs3)ccc2N)cc1` [Merck60, 4-acetamido-N-(2-amino-5-(thiophen-2-yl)phenyl)benzamide], the “CI (combination index)” value in the data set with RPMI8226 cells [2] (HDAC inhibitor 1 μM + bortezomib 2 nM) stood at 1.95; in the data set on RPMI8226 cells [2] (HDAC inhibitor 1 μM + bortezomib 3 nM) it was 1.06; in the data set on RPMI8226 cells [2] (setting [4]), 1.19; in the data set on RPMI8226 cells [2] (setting [5]) it was 1.54; in the data set with RPMI8226 cells [2] (setting [6]), 1.21; with RPMI8226 cells [2] (setting [7]), 1.34. The figures for the “CI (combination index)” value in the data set with RPMI8226 cells [2] (setting [8]), in the data set with RPMI8226 cells [2] (setting [9]) and with RPMI8226 cells [2] (setting [10]) were 1.45, 1.4 and 1.55, respectively. For the same compound, in the data set on MM cell lines, the “MM cell growth inhibition” value is “only a modest growth inhibition effect”.
